These results are taken from US20130196991A1, “SUBSTITUTED INDOLES, ANTIVIRAL ACTIVE COMPONENT, METHOD FOR PREPARATION AND USE THEREOF” (priority 2010, published 2013).

In general, IC50 refers to the point on the concentration scale where inhibition reaches its midpoint.

The structures appear in SMILES notation. Where a name gives a salt, the structure may show the parent alone.

The first assay concerns JFH-1 HCV. The assay can be described thus: microbe, parasite or virus in culture. In kind it is cell-based, hepatitis C virus (HCV). The conditions noted are these: Hepatitis C virus, Huh-7, read-out: Inhibition of hepatitis C virus (IC50). On the procedure: Determination of antiviral activity of compounds of the general formula 1 towards hepatitis C viruses.
Determination of antiviral activity of compounds of the general formulas 1, 1.1, 1.2, 1.3, 1.3.1, 1.3.1.1 towards HCV was carried out on Huh7 cell culture. Immune in vitro (ELISA—enzyme-linked immunosorbent assay) test ELISA towards HCV virus cor-antigen was used. By means of this test inhibition effectiveness of antigen production (and, consequently, virus replication) by tested compounds in cells infected by JFH-1 virus was measured. Used in this experiment Huh7 cell culture having been infected with HCV virus is capable to support full range of viral replication.
Recombinant JFH-1 HCV virus used in the experiment was prepared by means of transfection of Huh7 cells by RNA JFH-1, prepared by transcription in vitro. JFH-1 DNA [Wakita, T. u ∂p. Production of Infectious Hepatitis C Virus in Tissue Culture from a Cloned Viral Genome. Nature Medicine 2005, 11:791-796.]) used as DNA matrix for transcription (NCBI, catalogue number AB047639, was synthesized chemically.
Huh7 cells were sowed in 96-well plates (3.0×10^3 cells in every well) Huh-7 medium (50 μl per every well). 9 solutions of every tested compound in Huh-7 medium in the range of concentrations of 0.09-200 μM were prepared. In 4 h after cell sowing the initial solution was removed by aspiration, after that 50 μl of tested compound solution and 50 μl of JFH-1 HCV were added to every well. As a result, the final concentrations of the tested compounds were in the range of 0.045-100 μM. If required the step of infection was carried out in 24 h after addition of tested compounds. After incubation for 16 h viral medium was removed by aspiration, and the tested compounds were added to the cultures in initial concentration to final value of 200 μl. The cells and tested compounds were incubated additionally for 4 days at 37° C. in the atmosphere of air containing 5% CO2. After the removal of nutrient solution the cells were fixed by addition of acetone/methanol (1:1) mixture in amount of 250 μl/well for 1 minute, washed three times with Phosphate Buffer (PBS buffer and then they were blocked by 10% FBS-PBS solution (150 μl/well)) for 1 h at room temperature. Each well was washed three times with PBS solution, incubated with mouse monoclonal antibodies to HCV cor-antigen (Affinity BioReagents, Catalogue: MA1-080), dissolved in FBS-PBS buffer (100 μl/well, prepared from the initial concentrate, diluted in the ratio 1:500 in 10% FBS-PBS), for 2 h at 37° C. Each well was washed three times with PBS solution, incubated with antibodies specific to mouse immunoglobulins, conjugated with horseradish peroxidase (HRP, 100 mkl/well of solution prepared from the initial concentrate, diluted in ratio 1:2500 in 10% FBS-PBS) for 1 h at 37° C. Each well was washed three times with PBS solution, then treated with OPD solution in amount of 100 μl/well (prepared by dilution of one OPD tablet in B 12 ml of citrate/phosphate buffer with addition of 5 μl of 30% H2O2) for 30 min in darkness at room temperature. The reaction was stopped by addition of 2N H2SO4 (100 μl/well), after that optical density at 490 nm was measured. IC50 value representing the concentration of the tested compound at which virus replication is lowered twice was calculated for every tested compound using Xlfit program according to the method described in [Wakita, T. u ∂p. (2005). Production of Infectious Hepatitis C Virus in Tissue Culture from a Cloned Viral Genome. Nature Medicine; 11:791-796.].
Consider `CCCN1CCN(C(=O)C2CCCN(Cc3cc4ccccc4n3Cc3ccc(Cl)cc3)C2)CC1` (centres unmarked) [1.3.2.1(13) * 2 HCl, 1-(4-chlorobenzyl)-2-({3-[(4-propylpiperazin-1-yl)carbonyl]piperidin-1-yl}methyl)-1H-indole dihydrochloride], for which the IC50 was 400 nM.

With `c1ccc(CN2CCCn3c4c(c5cc(C6CCCCC6)ccc53)CCCC42)cc1` (centres unmarked) [1.2(8)], the 50% inhibitory concentration (IC50) was 1600 nM.

As for `CCCN1CCN(C(=O)C2CCN(Cc3cc4ccccc4n3C)CC2)CC1` [1.3.1.1(14) * 2 HCl, 1-Methyl-2-({4-[(4-propylpiperazin-1-yl)carbonyl]piperidin-1-yl}methyl)-1H-indole dihydrochloride], the half-maximal inhibitory concentration (IC50) turned out to be 2100 nM.

Regarding `CC(C)c1ccc2c(c1)c1c3n2CCN(CC(N)=O)C3CCC1` (centres unmarked) [1.2(1), 2-(8-isopropyl-1,2,3a,4,5,6-hexahydro-3H-pyrazino[3,2,1-jk]carbazol-3-yl)-acetamide], the IC50 was 1700 nM.

Consider `CN1CCN(C(=O)C2CCN(Cc3cc4ccccc4n3C)CC2)CC1` [1.3.1.1(15) * 2 HCl, 1-Methyl-2-({4-[(4-methylpiperazin-1-yl)carbonyl]piperidin-1-yl}methyl)-1H-indole], for which the IC50 came to 2400 nM.

`Clc1ccc(Cn2c(CN3CCCC3)nc3ccccc32)cc1` [I Control, Clemizole, reference compound]: the IC50 is 9000 nM.

Regarding `CCCN1CCN(C(=O)C2CCN(Cc3cc4ccccc4n3Cc3ccc(Cl)cc3)CC2)CC1` [1.3.1.1(13), {1-[1-(4-chlorobenzyl)-1H-indol-2-ylmethyl]-piperidin-4-yl}-(4-propylpiperazin-1-yl)-methanone], the IC50 was 300 nM.

Still in this assay, the particulars now being: Huh7 cell culture infected with recombinant JFH-1 HCV; ELISA of cor-antigen; concentration at which virus replication is lowered twice; read-out: Inhibition of hepatitis C virus (IC50).
Turning to `CCCN1CCN(C(=O)C2CCCN(Cc3cc4ccccc4n3C)C2)CC1` (centres unmarked) [1.3.2.1(14) * 2 HCl, 1-Methyl-2-({3-[(4-propylpiperazin-1-yl)carbonyl]piperidin-1-yl}methyl-1H-indoledihydrochloride], the IC50 is 2100 nM.
